Laboratory results taken from the supplement of paper PMC4862054.

Tests used:
Settings in all cases: incubation time: 72 h
[1] = test system: HCC1599; assay: normalised response (% of control), CellTiter-Glo; higher = more viable cells (100 = DMSO, 0 = benzethonium chloride kill control)
Method in brief: (§1)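 CellTox Green fluorescence (485/520 nm) and, after 10 min at room temperature, CellTiter-Glo luminescence were read from breast cancer cell lines incubated 72 h in 384-well plates. Cells were seeded as 20 µl suspension onto compound at 5 concentrations in 10-fold steps over a 10,000-fold range chosen per compound. Each plate was normalised to 0.1 % DMSO (100) and a positive kill control (0). Values are normalised signals, one per concentration.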

[2] = test system: CAL-148; assay: as above
Method in brief: as §1

[3] = test system: MDA-MB-231; assay: as above
Method in brief: as §1

[4] = test system: MFM-223; assay: as above
Method in brief: as §1

[5] = test system: HCC1937; assay: as above
Method in brief: as §1

[6] = test system: MDA-MB-436; assay: as above
Method in brief: as §1

[7] = test system: Hs578T; assay: as above
Method in brief: as §1

[8] = test system: CAL-85-1; assay: as above
Method in brief: as §1

[9] = test system: BT-549; assay: as above
Method in brief: as §1

[10] = test system: CAL-51; assay: as above
Method in brief: as §1

[11] = test system: DU-4475; assay: as above
Method in brief: as §1

[12] = test system: SK-BR-3; assay: as above
Method in brief: as §1

[13] = test system: CAL-120; assay: as above
Method in brief: as §1

[14] = test system: BT-474; assay: as above
Method in brief: as §1

[15] = test system: MCF-10A; assay: as above
Method in brief: as §1

[16] = test system: HDQ-P1; assay: as above
Method in brief: as §1

[17] = test system: MDA-MB-468; assay: as above
Method in brief: as §1

[18] = test system: HCC1143; assay: as above
Method in brief: as §1

[19] = test system: MDA-MB-453; assay: as above
Method in brief: as §1

[20] = test system: HCC1599; assay: normalised viability (% of control), CellTiter-Blue; higher = more viable cells (100 = DMSO, 0 = benzethonium chloride kill control)
Experimental: (§2)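 DSRT, CellTiter-Blue viability, 72 h incubation. Signal is normalised to DMSO and benzethonium chloride controls. Value is the normalised response at dose 1.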

[21] = test system: CAL-148; assay: as above
Experimental: as §2

[22] = test system: MDA-MB-231; assay: as above
Experimental: as §2

[23] = test system: MFM-223; assay: as above
Experimental: as §2

[24] = test system: HCC1937; assay: as above
Experimental: as §2

[25] = test system: MDA-MB-436; assay: as above
Experimental: as §2

[26] = test system: Hs578T; assay: as above
Experimental: as §2

[27] = test system: CAL-85-1; assay: as above
Experimental: as §2

[28] = test system: BT-549; assay: as above
Experimental: as §2

[29] = test system: CAL-51; assay: as above
Experimental: as §2

[30] = test system: DU-4475; assay: as above
Experimental: as §2

[31] = test system: SK-BR-3; assay: as above
Experimental: as §2

[32] = test system: CAL-120; assay: as above
Experimental: as §2

[33] = test system: BT-474; assay: as above
Experimental: as §2

[34] = test system: HDQ-P1; assay: as above
Experimental: as §2

[35] = test system: MDA-MB-468; assay: as above
Experimental: as §2

[36] = test system: HCC1143; assay: as above
Experimental: as §2

[37] = test system: MDA-MB-453; assay: as above
Experimental: as §2

Row | SMILES | normalised response [1] [%] | normalised response [2] [%] | normalised response [3] [%] | normalised response [4] [%] | normalised response [5] [%] | normalised response [6] [%] | normalised response [7] [%] | normalised response [8] [%] | normalised response [9] [%] | normalised response [10] [%] | normalised response [11] [%] | normalised response [12] [%] | normalised response [13] [%] | normalised response [14] [%] | normalised response [15] [%] | normalised response [16] [%] | normalised response [17] [%] | normalised response [18] [%] | normalised response [19] [%] | normalised viability [20] [%] | normalised viability [21] [%] | normalised viability [22] [%] | normalised viability [23] [%] | normalised viability [24] [%] | normalised viability [25] [%] | normalised viability [26] [%] | normalised viability [27] [%] | normalised viability [28] [%] | normalised viability [29] [%] | normalised viability [30] [%] | normalised viability [31] [%] | normalised viability [32] [%] | normalised viability [33] [%] | normalised viability [34] [%] | normalised viability [35] [%] | normalised viability [36] [%] | normalised viability [37] [%]
1 | Cc1ccc(F)c(NC(=O)Nc2ccc(-c3cccc4[nH]nc(N)c34)cc2)c1 [Linifanib] (0.1 nM) | 115 | 112 | 102 | 105 | 102 | 107 | 100 | 98.8 | 97 | 105 | 105 | 112 | 101 | 107 | 105 | 102 | 102 | 100 | 122 | 110 | 117 | 100 | 103 | 92.4 | 149 | 99.3 | 94.7 | 109 | 101 | 110 | 107 | 95.4 | 116 | 115 | 130 | 116 | 112
2 | S=c1[nH]cnc2nc[nH]c12 [Mercaptopurine] (1 nM) | 98.9 | 91.3 | 98.2 | 97.3 | 99.8 | 97.2 | 103 | 96.9 | 108 | 122 | 92.4 | 95.7 | 99.5 | 90.2 | 95.3 | 108 | 90.8 | 97.8 | 109 | 97.3 | 116 | 103 | 95.9 | 93.6 | 80.8 | 130 | 84 | 107 | 104 | 101 | 104 | 96.6 | 105 | 106 | 98.7 | 97.6 | 105
3 | Clc1ccc(C(c2ccccc2Cl)C(Cl)Cl)cc1 (stereo not drawn) [Mitotane] (1 nM) | 103 | 99.4 | 93.6 | 97.7 | 94.5 | 85.8 | 102 | 95.5 | 108 | 109 | 95.3 | 95.4 | 95.2 | 90.7 | 94.9 | 97.8 | 96.4 | 101 | 96 | 112 | 117 | 99 | 95.1 | 83.8 | 90.9 | 118 | 92.4 | 103 | 111 | 104 | 101 | 99.2 | 89.9 | 112 | 108 | 98 | 107
4 | COc1cccc2cc(-c3nc([C@H]4CC[C@H](C(=O)O)CC4)n4ncnc(N)c34)[nH]c12 [OSI-027] (1 nM) | 101 | 98.7 | 93.9 | 90.5 | 97.1 | 86.8 | 97.9 | 101 | 95.5 | 88 | 91.7 | 91.1 | 102 | 95.8 | 91.4 | 96.3 | 90.1 | 92.8 | 95.4 | 110 | 96.1 | 83.6 | 95.9 | 88.9 | 93.8 | 118 | 100 | 93.9 | 90.3 | 87.8 | 86.9 | 96.8 | 85.3 | 76.9 | 90.7 | 105 | 88.8
